From publication PMC8121435, “Cork-in-bottle mechanism of inhibitor binding to mammalian complex I” (Science Advances, 2021)

Columns and labels:
Type in all cases: biochemical
[1] = target: T1, yeast (Y. lipolytica) complex I (Yarrowia lipolytica, UniProt Q9B6E8+Q9UUT7+Q9UUU1); assay: NADH:decylubiquinone oxidoreduction by purified Y. lipolytica complex I
T1 sequence (Q9B6E8 1-341): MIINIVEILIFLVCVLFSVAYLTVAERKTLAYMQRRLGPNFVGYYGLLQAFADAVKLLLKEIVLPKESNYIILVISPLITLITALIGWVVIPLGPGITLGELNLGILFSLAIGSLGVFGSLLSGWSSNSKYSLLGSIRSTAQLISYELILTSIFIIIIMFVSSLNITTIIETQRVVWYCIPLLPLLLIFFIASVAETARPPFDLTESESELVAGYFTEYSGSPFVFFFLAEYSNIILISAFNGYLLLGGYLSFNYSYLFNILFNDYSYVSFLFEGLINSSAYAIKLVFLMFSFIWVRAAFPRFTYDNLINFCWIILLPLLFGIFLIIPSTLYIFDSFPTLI
T1 sequence (Q9UUU1 22-466): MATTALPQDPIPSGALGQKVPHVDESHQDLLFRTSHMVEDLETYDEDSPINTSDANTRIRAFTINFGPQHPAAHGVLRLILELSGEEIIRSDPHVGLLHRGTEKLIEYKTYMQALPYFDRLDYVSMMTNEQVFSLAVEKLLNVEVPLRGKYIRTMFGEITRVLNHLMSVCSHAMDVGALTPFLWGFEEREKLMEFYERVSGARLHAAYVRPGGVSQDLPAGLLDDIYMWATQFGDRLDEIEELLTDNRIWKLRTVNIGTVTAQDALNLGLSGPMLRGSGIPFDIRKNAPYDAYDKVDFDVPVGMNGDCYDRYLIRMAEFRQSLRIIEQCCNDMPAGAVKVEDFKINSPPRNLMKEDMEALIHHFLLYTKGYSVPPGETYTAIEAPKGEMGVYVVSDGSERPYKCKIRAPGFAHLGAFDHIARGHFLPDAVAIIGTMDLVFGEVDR
T1 sequence (Q9UUT7 28-210): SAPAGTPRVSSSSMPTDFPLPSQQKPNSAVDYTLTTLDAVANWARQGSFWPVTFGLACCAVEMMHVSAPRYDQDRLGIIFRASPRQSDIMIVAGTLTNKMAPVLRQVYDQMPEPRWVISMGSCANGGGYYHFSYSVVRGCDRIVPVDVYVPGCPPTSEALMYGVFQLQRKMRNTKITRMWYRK
Protocol: (§1) All catalytic activity assays were conducted at 32°C in 96-well plates using a Molecular Devices Spectramax 384 plus plate reader. Catalysis was initiated by addition of 200 μM NADH and monitored at 340 and 380 nm (ε340–380 = 4.81 mM^−1 cm^−1). Linear rates were measured for all assays, inhibitors were added from dimethyl sulfoxide stock solutions as required, and inhibitor-insensitive rates (using either 1 μM piericidin A or 1.4 μM IACS-2858) were subtracted from each measured rate. Membrane samples were prepared as described previously ([17], [20], [59], [60]), diluted to 20 μg ml^−1 in 10 mM tris-SO4 (pH 7.5) and 250 mM sucrose, and supplemented with 3 μM horse heart cytochrome c (except for P. denitrificans, for which the activity is unaffected by the addition). Mouse, bovine, and yeast (Y. lipolytica) complex I were purified as described previously ([17], [20], [59]); diluted to 0.5 nM in 20 mM tris-HCl (pH 7.5), 0.15% asolectin, and 0.15% CHAPS; and assayed using either 200 μM dQ or 200 μM ubiquinone-1 (Sigma-Aldrich). Complex I was purified from P. denitrificans strain Pd1222 ([61]) and provided by O. D. Jarman (MRC Mitochondrial Biology Unit, University of Cambridge); it was assayed likewise but in 10 mM MES-HCl (pH 6.5), 25 mM NaCl, and 2 mM CaCl2. […]

bovine complex I = target: T2, bovine complex I (Bos taurus, UniProt P03887+P17694+P42026); assay: NADH:decylubiquinone oxidoreduction by purified bovine complex I; details: purified B. taurus complex I, dQ; ± SE
T2 construct: Complex I from bovine heart were prepared; from tissue; host or cells: bovine heart mitochondria
Protocol: as §1

[2] = target: T3, complex I in mitochondrial membranes (Mus musculus, UniProt P03888+Q91WD5+Q9DC70); assay: NADH oxidation in mouse mitochondrial membranes; details: M. musculus membranes 20 μg ml−1; ± SE
T3 construct: from tissue; host or cells: mouse (C57BL/6) heart mitochondria
Protocol: as §1

mouse complex I = target: T4, mouse complex I (Mus musculus, UniProt P03888+Q91WD5+Q9DC70); assay: NADH:decylubiquinone oxidoreduction by purified mouse complex I; details: purified mouse complex I ~0.5 nM, 200 μM dQ, 200 μM NADH, 32°C; Hill slope constrained to −1; ± SE
T4 construct: from tissue; host or cells: mouse (C57BL/6) heart mitochondria
Protocol: (§2) All catalytic activity assays were conducted at 32°C in 96-well plates using a Molecular Devices Spectramax 384 plus plate reader. Catalysis was initiated by addition of 200 μM NADH and monitored at 340 and 380 nm (ε340–380 = 4.81 mM^−1 cm^−1). Linear rates were measured for all assays, inhibitors were added from dimethyl sulfoxide stock solutions as required, and inhibitor-insensitive rates (using either 1 μM piericidin A or 1.4 μM IACS-2858) were subtracted from each measured rate. Membrane samples were prepared as described previously ([17], [20], [59], [60]), diluted to 20 μg ml^−1 in 10 mM tris-SO4 (pH 7.5) and 250 mM sucrose, and supplemented with 3 μM horse heart cytochrome c (except for P. denitrificans, for which the activity is unaffected by the addition). Mouse, bovine, and yeast (Y. lipolytica) complex I were purified as described previously ([17], [20], [59]); diluted to 0.5 nM in 20 mM tris-HCl (pH 7.5), 0.15% asolectin, and 0.15% CHAPS; and assayed using either 200 μM dQ or 200 μM ubiquinone-1 (Sigma-Aldrich). Complex I was purified from P. denitrificans strain Pd1222 ([61]) and provided by O. D. Jarman (MRC Mitochondrial Biology Unit, University of Cambridge); it was assayed likewise but in 10 mM MES-HCl (pH 6.5), 25 mM NaCl, and 2 mM CaCl2. Bovine SMPs were prepared as described previously ([61]) and diluted to 20 μg ml^−1 in 10 mM tris-SO4 (pH 7.5) and 250 mM sucrose for FET and RET assays. The RET assay was initiated using 1 mM NAD^+, 1 mM ATP, 10 mM succinate, 1 mM cyanide, and 2 mM MgSO4, in the absence of NADH. AOX from Trypanosoma brucei brucei was prepared as described previously ([23]). Complex I proteoliposomes were assayed using 10 mM Mops-KOH (pH 7.5), 50 mM KCl, and AOX (10 μg ml^−1).

complex I in bovine SMPs = target: T5, complex I in bovine SMPs (Bos taurus, UniProt P03887+P17694+P42026); assay: Reverse electron transport (succinate oxidation-driven NAD+ reduction) in bovine heart submitochondrial particles
T5 construct: Complex I from bovine heart were prepared; from tissue; host or cells: bovine heart mitochondria
Protocol: as §2

[3] = target: T6, complex I in bacterial membranes (Paracoccus denitrificans, UniProt P29916+P29918+P29920); assay: NADH oxidation in P. denitrificans bacterial membranes; details: P. denitrificans membranes 20 μg ml−1
T6 construct: Complex I was purified from P. denitrificans strain Pd1222; endogenous in cells; host or cells: P. denitrificans strain Pd1222
Protocol: as §1

**Q.** What does the source list for `CS(=O)(=O)C1CCN(c2cccc(Cn3cc(-c4nc(-c5ccc(OC(F)(F)F)cc5)no4)ccc3=O)c2)CC1` [IACS-2858, 1-(3-(4-(Methylsulfonyl)piperidin-1-yl)benzyl)-5-(3-(4-(trifluoromethoxy)phenyl)-1,2,4-oxadiazol-5-yl)pyridin-2(1H)-one]?
**A.** IC50 [1]: 358 ± 37 nM; IC50 (bovine complex I): 9.3 ± 0.7 nM; IC50 [2]: 1.4 ± 0.1 nM; IC50 (mouse complex I): 2.8 nM; IC50 (complex I in bovine SMPs; bovine SMPs, succinate oxidation-driven NAD+ reduction rate, ± SE): 3.1 ± 0.1 nM; inhibition of RET favoured over FET (complex I in bovine SMPs; bovine heart SMPs, RET versus FET): > 2 fold; IC50 [3]: ~61000 nM
